Experimental data taken from ChEMBL document CHEMBL5096202, “Carbon-silicon switch led to the discovery of novel synthetic cannabinoids with therapeutic effects in a mouse model of multiple sclerosis” (Eur J Med Chem, 2021).

Assays:
[1] = biological target: T1, Cannabinoid receptor 1 (Homo sapiens, UniProt P21554); test: Agonist activity at recombinant human CB1 receptor expressed in CHO cells assessed as inhibition of forskolin-induced cAMP accumulation preincubated for 15 mins followed by forskolin stimulation and measured after 15 mins by HTRF assay; assay type: functional, cell-based
T1 sequence (P21554 whole entry): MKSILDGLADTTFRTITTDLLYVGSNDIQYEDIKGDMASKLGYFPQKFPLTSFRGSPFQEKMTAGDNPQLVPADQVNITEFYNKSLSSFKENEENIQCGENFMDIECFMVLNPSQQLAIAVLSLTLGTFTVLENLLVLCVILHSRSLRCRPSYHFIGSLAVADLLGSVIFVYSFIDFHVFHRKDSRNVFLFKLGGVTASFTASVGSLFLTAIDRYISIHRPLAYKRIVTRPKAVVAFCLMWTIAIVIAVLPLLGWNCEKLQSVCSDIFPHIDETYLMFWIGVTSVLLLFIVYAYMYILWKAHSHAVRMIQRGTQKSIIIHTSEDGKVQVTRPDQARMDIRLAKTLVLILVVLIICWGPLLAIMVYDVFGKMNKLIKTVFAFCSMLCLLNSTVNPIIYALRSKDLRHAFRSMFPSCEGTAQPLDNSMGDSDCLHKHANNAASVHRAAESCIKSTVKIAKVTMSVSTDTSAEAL

[2] = biological target: T2, Cannabinoid receptor 2 (Homo sapiens, UniProt P34972); test: Displacement of [3H]-CP55940 from recombinant human CB2 receptor expressed in CHO cells assessed as inhibition constant incubated for 120 mins by radioligand binding assay; assay type: cell-based
T2 sequence (P34972 whole entry): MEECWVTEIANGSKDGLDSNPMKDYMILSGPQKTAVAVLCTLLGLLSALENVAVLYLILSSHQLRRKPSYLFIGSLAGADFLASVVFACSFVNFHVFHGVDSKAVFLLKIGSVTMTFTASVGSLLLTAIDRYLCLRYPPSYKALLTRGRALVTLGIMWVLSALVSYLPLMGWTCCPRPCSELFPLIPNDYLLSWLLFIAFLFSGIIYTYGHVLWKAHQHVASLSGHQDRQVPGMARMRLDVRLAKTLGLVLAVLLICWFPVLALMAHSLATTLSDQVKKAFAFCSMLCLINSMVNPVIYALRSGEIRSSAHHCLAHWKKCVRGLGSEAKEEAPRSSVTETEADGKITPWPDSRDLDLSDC

[3] = biological target: T2, Cannabinoid receptor 2; test: Agonist activity at recombinant human CB2 receptor expressed in CHO cells assessed as inhibition of forskolin-induced cAMP accumulation preincubated for 15 mins followed by forskolin stimulation and measured after 15 mins by HTRF assay; assay type: functional, cell-based
[4] = biological target: T1, Cannabinoid receptor 1; test: Displacement of [3H]-CP55940 from recombinant human CB1 receptor expressed in CHO cells assessed as inhibition constant incubated for 120 mins by radioligand binding assay; assay type: cell-based
[5] = biological target: T2, Cannabinoid receptor 2; test: Agonist activity at recombinant human CB2 receptor expressed in CHO cells assessed as inhibition of forskolin-induced cAMP accumulation by measuring maximum efficacy preincubated for 15 mins followed by forskolin stimulation and measured after 15 mins by HTRF assay relative to control; assay type: functional, cell-based; settings: filed as agonist, time 30.0 min
[6] = biological target: T1, Cannabinoid receptor 1; test: Agonist activity at recombinant human CB1 receptor expressed in CHO cells assessed as inhibition of forskolin-induced cAMP accumulation by measuring maximum efficacy preincubated for 15 mins followed by forskolin stimulation and measured after 15 mins by HTRF assay relative to control; assay type: functional, cell-based; settings: filed as agonist, time 30.0 min
[7] = Metabolic stability in rat liver microsomes assessed as intrinsic clearance; assay type: ADME, Microsome; settings: read-out: CLH
[8] = Metabolic stability in mouse liver microsomes assessed as half life; assay type: ADME, Microsome
[9] = Metabolic stability in mouse liver microsomes assessed as intrinsic clearance; assay type: ADME, Microsome; settings: read-out: CLH
[10] = Metabolic stability in human liver microsomes assessed as half life; assay type: ADME, Microsome
[11] = Metabolic stability in human liver microsomes assessed as intrinsic clearance; assay type: ADME, Microsome; settings: read-out: CLH
[12] = Metabolic stability in rat liver microsomes assessed as half life; assay type: ADME, Microsome

Compound | EC50 [1] [µM] | Ki [2] [µM] | EC50 [3] [µM] | Ki [4] [µM] | Emax [5] [%] | Emax [6] [%] | CLint scaled [7] [L/h/kg] | half-life [8] [min] | CLint scaled [9] [L/h/kg] | half-life [10] [min] | CLint scaled [11] [L/h/kg] | half-life [12] [min]
CCCCCC[Si](C)(C)c1cc(O)c2c(c1)OC(C)(C)[C@@H]1CCC(C)=C[C@@H]21 | 0.00594 | 0.00741 | 0.0202 | 0.0008 | 90.2 | 99.2 |  |  |  |  |  | 
CCCCCC[Si](C)(C)c1cc(O)c(C2CCCC2)c(O)c1 |  | 0.0423 | 0.446 | 0.0642 | 104 |  |  |  |  |  |  | 
CCCC[Si](C)(C)c1cc(O)c(C2CCCCC2)c(O)c1 |  | 0.0314 | 0.0253 | 0.241 | 95.2 |  |  |  |  |  |  | 
CCCC[Si](C)(C)c1cc(O)c2c(c1)OC(C)(C)c1ccc(CO)cc1-2 | 0.214 | 0.00349 | 0.267 | 0.00279 | 92.8 | 94.8 |  |  |  |  |  | 
C=C(C)[C@@H]1CCC(C)=C[C@H]1c1c(O)cc(CCCCC)cc1O [CANNABIDIOL] |  |  |  |  |  |  | 294 | 1.11 | 103 | 4.46 | 23.4 | 1.44
CCCCCC[Si](C)(C)c1cc(O)c2c(c1)OC(C)(C)[C@@H]1CC=C(CO)C[C@@H]21 | 0.00658 | 0.00097 | 0.0613 | 0.00043 |  | 105 |  |  |  |  |  | 
CCCCCC[Si](C)(C)c1cc(O)c2c(c1)OC(C)(C)c1ccc(CO)cc1-2 | 0.0591 | 0.00125 | 27.4 | 0.00035 | 92.7 | 93 |  |  |  |  |  | 
CCCC[Si](C)(C)c1cc(O)c(C2CCCCCC2)c(OC)c1 |  | 0.616 | 0.475 |  | 93.3 |  |  |  |  |  |  | 
CCCC[Si](C)(C)c1cc(O)c(C2CCCCC2)c(OC)c1 |  | 0.396 | 0.707 | 0.671 | 90.4 |  |  |  |  |  |  | 
CCCCCC[Si](C)(C)c1cc(O)c(C2CCCCC2)c(OC)c1 | 0.554 | 0.165 | 0.0764 | 0.448 | 92.7 | 73.9 |  |  |  |  |  | 
CCCCCC[Si](C)(C)c1cc(O)c([C@H]2C=C(CO)[C@H]3C[C@@H]2C3(C)C)c(O)c1 | 0.248 | 0.0114 | 0.0635 | 0.0143 | 94.1 | 102 |  |  |  |  |  | 
CCCCCC[Si](C)(C)c1cc(O)c(C2CCCCC2)c(O)c1 | 0.453 | 0.00908 | 0.055 | 0.0177 | 95.5 | 98.6 |  |  |  |  |  | 
CCCC[Si](C)(C)c1cc(O)c2c(c1)OC(C)(C)c1ccc(C)cc1-2 | 0.4 | 0.00501 | 0.268 | 0.00515 | 90.4 | 102 |  |  |  |  |  | 
